Test: xn = mol fraction of the nth substance listed
Conditions: Liquid, Vibrating tube method

CCC(C)Cl (stereo not drawn) [2-chlorobutane] + CCCCCCC
mass density [kg/m3]
Conditions | 283.15 K | 293.15 K | 298.15 K
100 kPa, x2 = 0.0524 | 870.08 | 859.09 | 853.5
100 kPa, x2 = 0.1018 | 857.33 | 846.5 | 841
100 kPa, x2 = 0.1968 | 834.23 | 823.7 | 818.39
100 kPa, x2 = 0.3006 | 810.89 | 800.7 | 795.55
100 kPa, x2 = 0.4029 | 789.62 | 779.7 | 774.75
100 kPa, x2 = 0.5017 | 770.58 | 760.98 | 756.09
100 kPa, x2 = 0.6008 | 752.78 | 743.44 | 738.72
100 kPa, x2 = 0.7023 | 735.82 | 726.75 | 722.14
100 kPa, x2 = 0.7977 | 720.94 | 712.09 | 707.68
100 kPa, x2 = 0.8986 | 706.28 | 697.66 | 693.37
100 kPa, x2 = 0.952 | 698.95 | 690.45 | 686.19
2000 kPa, x2 = 0.0524 | 872.12 | 861.28 | 855.76
2000 kPa, x2 = 0.1018 | 859.33 | 848.65 | 843.26
2000 kPa, x2 = 0.1968 | 836.28 | 825.79 | 820.66
2000 kPa, x2 = 0.3006 | 812.93 | 802.72 | 797.76
2000 kPa, x2 = 0.4029 | 791.64 | 781.78 | 776.96
2000 kPa, x2 = 0.5017 | 772.59 | 763.02 | 758.28
2000 kPa, x2 = 0.6008 | 754.76 | 745.47 | 740.85
2000 kPa, x2 = 0.7023 | 737.76 | 728.77 | 724.29
2000 kPa, x2 = 0.7977 | 722.86 | 714.07 | 709.77
2000 kPa, x2 = 0.8986 | 708.14 | 699.64 | 695.44
2000 kPa, x2 = 0.952 | 700.89 | 692.42 | 688.29
5000 kPa, x2 = 0.0524 | 875.14 | 864.55 | 859.07
5000 kPa, x2 = 0.1018 | 862.34 | 851.88 | 846.59
5000 kPa, x2 = 0.1968 | 839.19 | 828.97 | 823.96
5000 kPa, x2 = 0.3006 | 815.75 | 805.92 | 800.99
5000 kPa, x2 = 0.4029 | 794.46 | 784.93 | 780.1
5000 kPa, x2 = 0.5017 | 775.35 | 766.08 | 761.4
5000 kPa, x2 = 0.6008 | 757.49 | 748.48 | 743.93
5000 kPa, x2 = 0.7023 | 740.41 | 731.73 | 727.26
5000 kPa, x2 = 0.7977 | 725.51 | 716.99 | 712.67
5000 kPa, x2 = 0.8986 | 710.74 | 702.52 | 698.28
5000 kPa, x2 = 0.952 | 703.44 | 695.28 | 691.09
7000 kPa, x2 = 0.0524 | 877.15 | 866.63 | 861.28
7000 kPa, x2 = 0.1018 | 864.31 | 853.99 | 848.7
7000 kPa, x2 = 0.1968 | 841.13 | 831.06 | 826.06
7000 kPa, x2 = 0.3006 | 817.66 | 807.98 | 803.03
7000 kPa, x2 = 0.4029 | 796.31 | 786.88 | 782.16
7000 kPa, x2 = 0.5017 | 777.21 | 768.04 | 763.43
7000 kPa, x2 = 0.6008 | 759.32 | 750.4 | 745.91
7000 kPa, x2 = 0.7023 | 742.22 | 733.58 | 729.24
7000 kPa, x2 = 0.7977 | 727.32 | 718.82 | 714.61
7000 kPa, x2 = 0.8986 | 712.5 | 704.3 | 700.19
7000 kPa, x2 = 0.952 | 705.2 | 697.05 | 692.99
10000 kPa, x2 = 0.0524 | 880.01 | 869.74 | 864.5
10000 kPa, x2 = 0.1018 | 867.16 | 857.1 | 851.96
10000 kPa, x2 = 0.1968 | 844.01 | 834.15 | 829.21
10000 kPa, x2 = 0.3006 | 820.49 | 810.94 | 806.14
10000 kPa, x2 = 0.4029 | 799.08 | 789.81 | 785.11
10000 kPa, x2 = 0.5017 | 779.9 | 770.91 | 766.31
10000 kPa, x2 = 0.6008 | 761.96 | 753.22 | 748.74
10000 kPa, x2 = 0.7023 | 744.79 | 736.37 | 731.99
10000 kPa, x2 = 0.7977 | 729.85 | 721.59 | 717.31
10000 kPa, x2 = 0.8986 | 714.98 | 707.02 | 702.79
10000 kPa, x2 = 0.952 | 707.64 | 699.74 | 695.56
20000 kPa, x2 = 0.0524 | 889.1 | 879.38 | 874.44
20000 kPa, x2 = 0.1018 | 876.16 | 866.54 | 861.8
20000 kPa, x2 = 0.1968 | 852.83 | 843.5 | 838.93
20000 kPa, x2 = 0.3006 | 829.21 | 820.12 | 815.63
20000 kPa, x2 = 0.4029 | 807.66 | 798.87 | 794.49
20000 kPa, x2 = 0.5017 | 788.35 | 779.78 | 775.52
20000 kPa, x2 = 0.6008 | 770.29 | 761.93 | 757.79
20000 kPa, x2 = 0.7023 | 753.01 | 744.92 | 740.82
20000 kPa, x2 = 0.7977 | 737.95 | 730 | 726.04
20000 kPa, x2 = 0.8986 | 722.98 | 715.31 | 711.31
20000 kPa, x2 = 0.952 | 715.57 | 707.96 | 704.04
30000 kPa, x2 = 0.0524 | 897.39 | 888.05 | 883.44
30000 kPa, x2 = 0.1018 | 884.45 | 875.23 | 870.7
30000 kPa, x2 = 0.1968 | 860.93 | 852.05 | 847.61
30000 kPa, x2 = 0.3006 | 837.18 | 828.48 | 824.28
30000 kPa, x2 = 0.4029 | 815.5 | 807.16 | 802.95
30000 kPa, x2 = 0.5017 | 796.06 | 787.91 | 783.76
30000 kPa, x2 = 0.6008 | 777.85 | 769.94 | 765.87
30000 kPa, x2 = 0.7023 | 760.42 | 752.73 | 748.83
30000 kPa, x2 = 0.7977 | 745.22 | 737.68 | 733.86
30000 kPa, x2 = 0.8986 | 730.14 | 722.85 | 719
30000 kPa, x2 = 0.952 | 722.65 | 715.45 | 711.62
40000 kPa, x2 = 0.0524 | 905.09 | 896.17 | 891.7
40000 kPa, x2 = 0.1018 | 892.06 | 883.24 | 878.82
40000 kPa, x2 = 0.1968 | 868.43 | 859.99 | 855.64
40000 kPa, x2 = 0.3006 | 844.52 | 836.22 | 832.09
40000 kPa, x2 = 0.4029 | 822.78 | 814.71 | 810.61
40000 kPa, x2 = 0.5017 | 803.2 | 795.32 | 791.32
40000 kPa, x2 = 0.6008 | 784.86 | 777.21 | 773.3
40000 kPa, x2 = 0.7023 | 767.33 | 759.89 | 756.08
40000 kPa, x2 = 0.7977 | 751.95 | 744.68 | 741.01
40000 kPa, x2 = 0.8986 | 736.77 | 729.72 | 726.09
40000 kPa, x2 = 0.952 | 729.23 | 722.25 | 718.59
50000 kPa, x2 = 0.0524 | 912.23 | 903.66 | 899.36
50000 kPa, x2 = 0.1018 | 899.1 | 890.68 | 886.42
50000 kPa, x2 = 0.1968 | 875.41 | 867.25 | 863
50000 kPa, x2 = 0.3006 | 851.37 | 843.41 | 839.43
50000 kPa, x2 = 0.4029 | 829.44 | 821.7 | 817.84
50000 kPa, x2 = 0.5017 | 809.74 | 802.25 | 798.42
50000 kPa, x2 = 0.6008 | 791.3 | 784.01 | 780.24
50000 kPa, x2 = 0.7023 | 773.63 | 766.55 | 762.91
50000 kPa, x2 = 0.7977 | 758.16 | 751.26 | 747.7
50000 kPa, x2 = 0.8986 | 742.88 | 736.16 | 732.64
50000 kPa, x2 = 0.952 | 735.27 | 728.63 | 725.09
60000 kPa, x2 = 0.0524 | 918.92 | 910.6 | 906.5
60000 kPa, x2 = 0.1018 | 905.75 | 897.63 | 893.49
60000 kPa, x2 = 0.1968 | 881.9 | 874.05 | 870.05
60000 kPa, x2 = 0.3006 | 857.83 | 850.18 | 846.26
60000 kPa, x2 = 0.4029 | 835.76 | 828.39 | 824.58
60000 kPa, x2 = 0.5017 | 816 | 808.8 | 805.08
60000 kPa, x2 = 0.6008 | 797.44 | 790.44 | 786.84
60000 kPa, x2 = 0.7023 | 779.67 | 772.89 | 769.41
60000 kPa, x2 = 0.7977 | 764.09 | 757.51 | 754.11
60000 kPa, x2 = 0.8986 | 748.68 | 742.26 | 738.96
60000 kPa, x2 = 0.952 | 741.04 | 734.67 | 731.32
65000 kPa, x2 = 0.0524 | 922.13 | 913.94 | 909.89
65000 kPa, x2 = 0.1018 | 908.95 | 900.93 | 896.87
65000 kPa, x2 = 0.1968 | 885.12 | 877.31 | 873.4
65000 kPa, x2 = 0.3006 | 860.95 | 853.35 | 849.57
65000 kPa, x2 = 0.4029 | 838.88 | 831.52 | 827.86
65000 kPa, x2 = 0.5017 | 819 | 811.84 | 808.29
65000 kPa, x2 = 0.6008 | 800.38 | 793.41 | 789.99
65000 kPa, x2 = 0.7023 | 782.58 | 775.8 | 772.52
65000 kPa, x2 = 0.7977 | 766.97 | 760.33 | 757.18
65000 kPa, x2 = 0.8986 | 751.48 | 745.06 | 741.94
65000 kPa, x2 = 0.952 | 743.76 | 737.4 | 734.28

Source: the NIST ThermoML archive (doi:10.1016/j.tca.2015.06.017)
